Source: patent US7220784B2, “Substituted stilbenes and their reactions” (priority 2000, dated 2007)
Like-named read-outs stand apart in the source and are kept apart here.

Columns and labels:
[1] = system: K562 human myelogeneous leukaemia cell line; assay: Cytotoxicity/growth inhibition assay (MTT), K562; assay type: cell-based; details: MTT, read-out: K562 IC50
From the text: (§1) In addition to the cell lines described in this paper, other established human cell lines (K562, HUVEC, H460, BE, H529, and HT29) were used in the cytotoxicity/growth inhibition assay. • (1) Inhibition of tubulin assembly. The figure quoted is the concentration required to reduce assembly of tubulin by 50%. Tubulin assembly is monitored by light scatter/absorption at 350 nm.
(§2) (2) Competition for the colchicine binding site on tubulin. The figure quoted represents the % of ^3H-colchicine bound following co-incubation of test compound and ^3H-cochicine with isolated tubulin. Where ester pro-drugs were used the experiments were carried out in the presence and absence of porcine liver esterase. • (3) Cytotoxicity/growth inhibition assay. This was carried out by the MTT assay. • (4) Permeability (shape-change) assay in endothelial cells. […] This involved the diffusion of a fluorescently labelled dextran through a barrier of endothelial cells (HUVEC) grown to confluence on a porous membrane. The effect of agents to alter the shape of these cells results in an increase in the permeability of the cells to the dye. The figure represents the increase in permeability over control cultures when drug is added (30 minutes, 1 mM.). • (5) Experiments to study the anti-vascular effects of these agents were carried out as described previously by our group. […] The anti-vascular effects of the agents were monitored by either positron emission tomography (PET) or by histologogical examination following treatment of mice bearing T50:80 murine breast tumours, or H460 human lung tumours. • (6) Anti-tumour efficacy of agents was determined in xenografts of H460 human lung cancer. Animals (n=5) were trated either with 5 daily injections and tumour size measured with time following treatment. • (7) The pharmacokinetic profile of agents was determined in mice following injection with drug. Blood was taken at various times following treatment and analysed by HPLC with UV detection. […] (AND(P)H:quinone oxidoreductace, EC 1.6.99.2). DT-diaphorase is an enzyme over-expressed in a number of human tumours. […] This two-electron reducing enzyme can be used to selectively activate prodrugs within cancers which over-express the enzyme.

tubulin [2] = system: T1, tubulin; assay: Inhibition of tubulin assembly; assay type: biochemical; details: concentration required to reduce assembly of tubulin by 50%
T1 construct: other: concentration required to reduce assembly of tubulin by 50%
Protocol: as §1, with “The following assays (1–5) were carried out as described in our paper (Woods, et al, British Journal of Cancer, 71, 705–711 (1995)). In addition” for “In addition”

HUVEC = assay: Growth inhibition studies using HUVEC; assay type: cell-based, human; details: Homo sapiens, HUVEC
Protocol: as §1, with “The following assays (1–5) were carried out as described in our paper (Woods, et al, British Journal of Cancer, 71, 705–711 (1995)). In addition” for “In addition”
(§3) (2) Competition for the colchicine binding site on tubulin. The figure quoted represents the % of ^3H-colchicine bound following co-incubation of test compound and ^3H-cochicine with isolated tubulin. Where ester pro-drugs were used the experiments were carried out in the presence and absence of porcine liver esterase. • (3) Cytotoxicity/growth inhibition assay. This was carried out by the MTT assay. • (4) Permeability (shape-change) assay in endothelial cells. This was carried out using a method based on that of Watts et al. (Anticancer Res., 17, 71–75, (1997)). This involved the diffusion of a fluorescently labelled dextran through a barrier of endothelial cells (HUVEC) grown to confluence on a porous membrane. The effect of agents to alter the shape of these cells results in an increase in the permeability of the cells to the dye. The figure represents the increase in permeability over control cultures when drug is added (30 minutes, 1 mM.). • (5) Experiments to study the anti-vascular effects of these agents were carried out as described previously by our group. (Zhao et al, European Journal of Nuclear Medicine, 26, 231–238 (1999)). The anti-vascular effects of the agents were monitored by either positron emission tomography (PET) or by histologogical examination following treatment of mice bearing T50:80 murine breast tumours, or H460 human lung tumours. • (6) Anti-tumour efficacy of agents was determined in xenografts of H460 human lung cancer. Animals (n=5) were trated either with 5 daily injections and tumour size measured with time following treatment. • (7) The pharmacokinetic profile of agents was determined in mice following injection with drug. Blood was taken at various times following treatment and analysed by HPLC with UV detection. The HPLC conditions were isocratic using a 5 micron C18 BDS column (150×4.6) ad eluting with 75% MeOH in water with a detection wavelength of 290 nm. […] (AND(P)H:quinone oxidoreductace, EC 1.6.99.2). DT-diaphorase is an enzyme over-expressed in a number of human tumours. […] This two-electron reducing enzyme can be used to selectively activate prodrugs within cancers which over-express the enzyme.

tubulin [3] = assay: MA IC50 (Tables 12-26, abbreviation not defined); assay type: biochemical
tubulin [4] = assay: CD IC50 (Tables 12-26, abbreviation not defined); assay type: binding
K562 [5] = assay: K562 cell cycle analysis; assay type: cell-based, human; details: K562
A2780 = assay: Cytotoxicity/growth inhibition assay (MTT), A2780; assay type: cell-based; details: read-out: A2780 IC50
Protocol: as §1, with “The following assays (1–5) were carried out as described in our paper (Woods, et al, British Journal of Cancer, 71, 705–711 (1995)). In addition” for “In addition”
as §3

[6] = system: P388 murine leukaemia cell line; assay: Cytotoxicity/growth inhibition assay (MTT), P388; assay type: cell-based; details: MTT
Protocol: as §2

K562 cells = assay: In situ ultra violet irradiation of dosed K562 cells, IC50; assay type: cell-based, human; details: read-out: IC50 K562 (nm)
Protocol: Previously, the isomerisation study had been performed ex situ, i.e. in a photochemical reactor. However, it was necessary to illustrate the potential of the process as a real therapy by repeating the isomerization in the presence of the caner cells i.e. in situ. […] Following irradiation, the cells were incubated in the normal way and the IC50 values were determined.
These consisted of i) exposing K562 cells only (i.e. cells which were not dosed with any potential drug candidate) to ultra violet light, ii) preventing K562 cells dosed with drug candidate from being exposed to ultra violet light, and iii) preventing K562 cells only (i.e. cells which were not dosed with any potential drug candidate) from being exposed to ultra violet light. […]

[7] = Photocleavage and isomerisation of coupled trans-CA-4 ex situ, composition (HPLC); assay type: physicochemical; details: benzene
From the text: The following compound retention times were observed:

K562 [8] = assay: IC50 of aliquots after ex situ irradiation in a photochemical reactor; details: for IC50: read-out: IC50 K562, ex situ irradiation in benzene, 400W Hg lamp
[9] = of cells with DNA content = 2 n or >2 n
[10] = irradiation 20. mins [sic] (Table 8)
[11] = irradiation 10.0 mins (Table 8)
[12] = irradiation 12.5 mins (Table 8)

CCOc1cc(/C=C\c2ccc(OC)c(O)c2)cc(OCC)c1OCC [Compound 31a, Z-1-(3′,4′,5′-triethoxyphenyl)-2-(3″-hydroxy-4″-methoxyphenyl)ethene]
IC50 ([1]; Homo sapiens, K562): 18 nM | IC50 (tubulin [2]): 7.5 µM

COc1ccc(/C=C\c2cc(OC)c(OC)c(OC)c2)cc1 [Compound 32]
IC50 ([1]; Homo sapiens, K562): 4 nM | IC50 (HUVEC): 6 nM | IC50 (tubulin [3]): 200 nM | IC50 (tubulin [4]): 5500 nM

CCOc1cc(/C=C\c2ccc(OC)c(F)c2)cc(OCC)c1OCC [Compound 32a, Z-1-(3′,4′,5′-triethoxyphenyl)-2-(3″-fluoro-4″-methoxyphenyl)ethene]
IC50 ([1]; Homo sapiens, K562): 44 nM | IC50 (tubulin [2]): 18 µM

CC/C(=C/c1cc(OC)c(OC)c(OC)c1)c1ccc(OC)c(O)c1 [Compound 45]
IC50 ([1]; Homo sapiens, K562): 120 nM | IC50 (tubulin [2]): 1.8 µM

COc1ccc(/C=C\c2cc(OC)c(OC)c(OC)c2)cc1F [Compound 90]
IC50 ([1]; Homo sapiens, K562): 10 nM | IC50 (HUVEC): 4 nM | IC50 (tubulin [3]): 85 nM | IC50 (tubulin [4]): 2800 nM | % of cells with DNA content <2 n (K562 [5]): 16% | % of cells in G0–G1 (K562 [5]; [9]): 5% | % of cells in G2-M (K562 [5]; [9]): 79% | % of cells in S phase (K562 [5]; [9]): 16%

COc1ccc(/C=C\c2cc(OC)c(OC)c(OC)c2)cc1Br [Compound 93]
IC50 ([1]; Homo sapiens, K562): 1 nM | IC50 (HUVEC): 67 nM | IC50 (tubulin [3]): 400 nM | IC50 (tubulin [4]): 10000 nM

COc1ccc(/C=C\c2cc(OC)c(OC)c(OC)c2)cc1OC [Compound 99-03H]
IC50 (A2780): 120 nM | IC50 [6]: 190 nM | IC50 [1]: 60 nM | IC50 (tubulin [2]): 60 µM

COC(=O)CCCOc1cc([N+](=O)[O-])c(COc2cc(/C=C/c3cc(OC)c(OC)c(OC)c3)ccc2OC)cc1OC [Compound E-8, Methyl 4-[2′-methoxy-4′-({2″-methoxy-5″-[(E)-2′″-3′″,4′″,5′″-trimethoxyphenylethenyl]phenoxy}-methyl)-5′-nitrophenoxy]butanoate]
IC50 (K562 cells; in situ UV 0 mins (Table 9)): > 100000 nM | IC50 (K562 cells; in situ UV 0.5 mins (Table 9)): 1540 nM | IC50 (K562 cells; in situ UV 1 mins (Table 9)): 450 nM | IC50 (K562 cells; in situ UV 1.5 mins (Table 9)): 250 nM | IC50 (K562 cells; in situ UV 2 mins (Table 9)): 130 nM | IC50 (K562 cells; in situ UV 3 mins (Table 9)): 40 nM | IC50 (K562 cells; in situ UV 4 mins (Table 9)): 11 nM | IC50 (K562 cells; in situ UV 5 mins (Table 9)): 9 nM | IC50 (K562 cells; in situ UV 7.5 mins (Table 9)): 5 nM | IC50 (K562 cells; in situ UV 10 mins (Table 9)): 2 nM | IC50 (K562 cells; in situ UV 12.5 mins (Table 9)): 3 nM | IC50 (K562 cells; in situ UV 15 mins (Table 9)): 3 nM | IC50 (K562 cells; in situ UV 17.5 mins (Table 9)): 2 nM | IC50 (K562 cells; in situ UV 20 mins (Table 9)): 2 nM | % coupled trans-CA-4 (E-8) ([7]; irradiation 0 mins (Table 8)): 100% | % cis-CA-4 [7, 10]: 9% | % coupled trans-CA-4 (E-8) [7, 10]: 72% | % trans-CA-4 [7, 10]: 19% | % coupled trans-CA-4 (E-8) ([7]; irradiation 0.5 mins (Table 8)): 93% | % trans-CA-4 ([7]; irradiation 0.5 mins (Table 8)): 7% | % cis-CA-4 ([7]; irradiation 1.0 mins (Table 8)): 4% | % coupled trans-CA-4 (E-8) ([7]; irradiation 1.0 mins (Table 8)): 88% | % trans-CA-4 ([7]; irradiation 1.0 mins (Table 8)): 8% | % cis-CA-4 ([7]; irradiation 1.5 mins (Table 8)): 8% | % coupled trans-CA-4 (E-8) ([7]; irradiation 1.5 mins (Table 8)): 80% | % trans-CA-4 ([7]; irradiation 1.5 mins (Table 8)): 12% | % cis-CA-4 ([7]; irradiation 3.0 mins (Table 8)): 11% | % coupled trans-CA-4 (E-8) ([7]; irradiation 3.0 mins (Table 8)): 62% | % trans-CA-4 ([7]; irradiation 3.0 mins (Table 8)): 27% | % cis-CA-4 ([7]; irradiation 4.0 mins (Table 8)): 8% | % coupled trans-CA-4 (E-8) ([7]; irradiation 4.0 mins (Table 8)): 61% | % trans-CA-4 ([7]; irradiation 4.0 mins (Table 8)): 31% | % cis-CA-4 ([7]; irradiation 5.0 mins (Table 8)): 10% | % coupled trans-CA-4 (E-8) ([7]; irradiation 5.0 mins (Table 8)): 53% | % trans-CA-4 ([7]; irradiation 5.0 mins (Table 8)): 37% | % cis-CA-4 ([7]; irradiation 7.5 mins (Table 8)): 13% | % coupled trans-CA-4 (E-8) ([7]; irradiation 7.5 mins (Table 8)): 42% | % trans-CA-4 ([7]; irradiation 7.5 mins (Table 8)): 45% | % cis-CA-4 [7, 11]: 19% | % coupled trans-CA-4 (E-8) [7, 11]: 34% | % trans-CA-4 [7, 11]: 47% | % cis-CA-4 [7, 12]: 45% | % coupled trans-CA-4 (E-8) [7, 12]: 20% | % trans-CA-4 [7, 12]: 35% | times less cytotoxic than trans-CA-4 (K562 [8]; K562): 5 | IC50 (K562 [8]; 0 mins (Table 8)): > 150000 nM | IC50 (K562 [8]; 20. mins as printed (Table 8)): 59 nM | IC50 (K562 [8]; 0.5 mins (Table 8)): 14600 nM | IC50 (K562 [8]; 1.0 mins (Table 8)): 450 nM | IC50 (K562 [8]; 1.5 mins (Table 8)): 90 nM | IC50 (K562 [8]; 3.0 mins (Table 8)): 14 nM | IC50 (K562 [8]; 4.0 mins (Table 8)): 12 nM | IC50 (K562 [8]; 5.0 mins (Table 8)): 8 nM | IC50 (K562 [8]; 7.5 mins (Table 8)): 4 nM | IC50 (K562 [8]; 10.0 mins (Table 8)): 6 nM | IC50 (K562 [8]; 12.5 mins (Table 8)): 2 nM | IC50 (K562 [8]; 15.0 mins (Table 8)): 2 nM | IC50 (K562 [8]; 17.5 mins (Table 8)): 4 nM | IC50 (K562 [8]; 20.0 mins (Table 8)): 3 nM
